Measurements reported in patent US10246426B2, “Triazole compounds as T-type calcium channel blockers” (IDORSIA PHARMACEUTICALS LTD, priority 2014, dated 2019).

target: Cav3.2 (Homo sapiens, UniProt O95180); assay: Calcium flux FLIPR assay, HEK293 cells recombinantly expressing Cav3.2; type: cell-based; settings: Cav3.2-channel, Ca2+ entry stimulated by 10 mM CaCl2
Summary of the method: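 Fluo-4-loaded HEK293 cells stably expressing Cav3.2, seeded overnight at 37 °C; compounds diluted in TEAC buffer (pH 7.2) and preincubated 3 min before Ca2+ entry triggered with CaCl2 at 10 mM final. Area under FLIPR fluorescence trace fitted sigmoidally; IC50 relative to vehicle signal.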

Chain of Cav3.2 (O95180 whole entry, looked up): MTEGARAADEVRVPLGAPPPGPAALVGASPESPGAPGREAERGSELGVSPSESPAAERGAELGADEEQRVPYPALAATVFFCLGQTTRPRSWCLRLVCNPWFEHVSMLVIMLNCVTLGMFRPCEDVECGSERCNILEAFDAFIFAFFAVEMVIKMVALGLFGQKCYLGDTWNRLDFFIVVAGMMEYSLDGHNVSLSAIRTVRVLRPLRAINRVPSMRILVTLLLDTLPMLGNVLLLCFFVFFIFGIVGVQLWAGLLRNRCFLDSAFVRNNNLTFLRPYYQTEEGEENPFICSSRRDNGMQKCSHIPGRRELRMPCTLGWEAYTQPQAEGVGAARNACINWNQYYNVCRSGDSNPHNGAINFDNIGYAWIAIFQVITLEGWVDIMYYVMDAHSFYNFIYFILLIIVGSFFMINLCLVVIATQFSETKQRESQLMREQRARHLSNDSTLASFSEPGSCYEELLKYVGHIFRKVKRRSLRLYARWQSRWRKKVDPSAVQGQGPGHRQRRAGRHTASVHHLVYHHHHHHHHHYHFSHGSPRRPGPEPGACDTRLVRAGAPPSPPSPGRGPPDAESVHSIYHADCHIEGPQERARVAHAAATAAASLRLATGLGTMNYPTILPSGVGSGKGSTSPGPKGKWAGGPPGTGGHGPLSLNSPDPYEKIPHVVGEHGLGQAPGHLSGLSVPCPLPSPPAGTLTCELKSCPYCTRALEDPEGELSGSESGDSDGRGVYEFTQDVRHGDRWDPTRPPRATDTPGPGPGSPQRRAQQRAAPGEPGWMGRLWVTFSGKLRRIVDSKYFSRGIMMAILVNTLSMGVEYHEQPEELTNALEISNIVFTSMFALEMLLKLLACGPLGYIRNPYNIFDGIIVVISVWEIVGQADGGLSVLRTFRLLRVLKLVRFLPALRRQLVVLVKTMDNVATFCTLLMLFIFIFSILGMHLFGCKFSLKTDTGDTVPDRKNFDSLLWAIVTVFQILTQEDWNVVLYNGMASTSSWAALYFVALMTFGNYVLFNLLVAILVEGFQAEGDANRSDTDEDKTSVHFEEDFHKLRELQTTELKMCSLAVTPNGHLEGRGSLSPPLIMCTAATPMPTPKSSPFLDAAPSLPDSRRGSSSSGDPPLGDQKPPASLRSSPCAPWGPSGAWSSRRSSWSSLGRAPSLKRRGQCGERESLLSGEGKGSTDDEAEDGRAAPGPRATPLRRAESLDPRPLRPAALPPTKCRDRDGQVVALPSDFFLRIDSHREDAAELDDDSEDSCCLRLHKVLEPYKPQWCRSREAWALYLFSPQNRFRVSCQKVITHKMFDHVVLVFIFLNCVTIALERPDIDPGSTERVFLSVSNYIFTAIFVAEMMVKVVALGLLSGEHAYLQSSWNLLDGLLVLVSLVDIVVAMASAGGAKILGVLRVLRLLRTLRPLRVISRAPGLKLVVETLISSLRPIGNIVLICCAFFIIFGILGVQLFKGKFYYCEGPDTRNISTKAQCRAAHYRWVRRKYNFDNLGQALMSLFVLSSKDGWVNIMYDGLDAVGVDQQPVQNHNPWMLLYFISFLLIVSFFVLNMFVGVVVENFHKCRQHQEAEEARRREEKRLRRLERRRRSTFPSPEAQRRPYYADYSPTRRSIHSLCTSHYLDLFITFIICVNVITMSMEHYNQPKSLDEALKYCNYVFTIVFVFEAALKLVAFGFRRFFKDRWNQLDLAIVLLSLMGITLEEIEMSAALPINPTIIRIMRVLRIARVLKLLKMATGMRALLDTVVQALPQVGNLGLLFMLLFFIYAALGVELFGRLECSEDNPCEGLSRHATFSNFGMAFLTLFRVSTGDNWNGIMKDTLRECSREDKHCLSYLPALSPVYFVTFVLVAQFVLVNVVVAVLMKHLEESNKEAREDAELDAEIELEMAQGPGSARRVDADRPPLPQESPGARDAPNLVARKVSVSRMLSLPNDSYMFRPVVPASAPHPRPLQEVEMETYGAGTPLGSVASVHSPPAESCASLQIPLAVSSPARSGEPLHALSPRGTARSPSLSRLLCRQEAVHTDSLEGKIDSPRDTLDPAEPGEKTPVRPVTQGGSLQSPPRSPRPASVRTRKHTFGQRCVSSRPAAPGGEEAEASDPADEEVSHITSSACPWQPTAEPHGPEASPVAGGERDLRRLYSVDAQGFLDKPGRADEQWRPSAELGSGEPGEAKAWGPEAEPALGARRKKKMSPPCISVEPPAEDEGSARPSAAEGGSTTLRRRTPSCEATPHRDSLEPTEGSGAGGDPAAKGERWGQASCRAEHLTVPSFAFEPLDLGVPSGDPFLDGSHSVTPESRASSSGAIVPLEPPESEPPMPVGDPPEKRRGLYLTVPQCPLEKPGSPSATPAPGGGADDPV

| Structure (SMILES) | IC50 [nM] |
| --- | --- |
| N#Cc1ccc(Cn2ncc(NC(=O)Cc3ccc(N4CCCC4)nc3)n2)cc1F [Example 75, N-[2-(4-Cyano-3-fluoro-benzyl)-2H-[1,2,3]triazol-4-yl]-2-(6-pyrrolidin-1-yl-pyridin-3-yl)-acetamide] | 87 |
| CC1(c2ccc(CC(=O)Nc3cnn(Cc4ccc(F)c(F)c4)n3)cc2)COC1 [Example 22, N-[2-(3,4-Difluoro-benzyl)-2H-[1,2,3]triazol-4-yl]-2-[4-(3-methyl-oxetan-3-yl)-phenyl]-acetamide] | 15 |
| CC(C)c1ccc(CC(=O)Nc2cnn(Cc3ccc(C#N)cc3)n2)cc1 [Example 26, N-[2-(4-Cyano-benzyl)-2H-[1,2,3]triazol-4-yl]-2-(4-isopropyl-phenyl)-acetamide] | 19 |
| COc1c(F)cc(Cn2ncc(NC(=O)Cc3ccc4c(c3)c(C)cn4C)n2)cc1F [Example 150, N-[2-(3,5-Difluoro-4-methoxy-benzyl)-2H-[1,2,3]triazol-4-yl]-2-(1,3-dimethyl-1H-indol-5-yl)-acetamide] | 16 |
| O=C(Cc1ccc(N2CCCC2)nc1)Nc1cnn(Cc2ccc(F)c(F)c2)n1 [Example 18, N-[2-(3,4-Difluoro-benzyl)-2H-[1,2,3]triazol-4-yl]-2-(6-pyrrolidin-1-yl-pyridin-3-yl)-acetamide] | 15 |
| CCN(CC)c1ccc(CC(=O)Nc2cnn(Cc3ccc(OC)c(OC)c3)n2)cn1 [Example 47, 2-(6-Diethylamino-pyridin-3-yl)-N-[2-(3,4-dimethoxy-benzyl)-2H-[1,2,3]triazol-4-yl]-acetamide] | 560 |
| O=C(Cc1ccc2[nH]ccc2c1)Nc1cnn(Cc2ccc(F)c(F)c2)n1 [Example 15, N-[2-(3,4-Difluoro-benzyl)-2H-[1,2,3]triazol-4-yl]-2-(1H-indol-5-yl)-acetamide] | 40 |
| Cc1ccc(Cn2ncc(NC(=O)Cc3ccc(C(C)(C)C)cc3)n2)cc1 [Example 66, 2-(4-tert-Butyl-phenyl)-N-[2-(4-methyl-benzyl)-2H-[1,2,3]triazol-4-yl]-acetamide] | 70 |
| N#Cc1ccc(Cn2ncc(NC(=O)Cc3ccc(OC4CC(F)(F)C4)cc3)n2)nc1 [Example 246, N-[2-(5-Cyano-pyridin-2-ylmethyl)-2H-[1,2,3]triazol-4-yl]-2-[4-(3,3-difluoro-cyclobutoxy)-phenyl]-acetamide] | 680 |
| Cc1cn(C)c2cc(CC(=O)Nc3cnn(Cc4ccc(C#N)cc4)n3)ccc12 [Example 106, N-[2-(4-Cyano-benzyl)-2H-[1,2,3]triazol-4-yl]-2-(1,3-dimethyl-1H-indol-6-yl)-acetamide] | 36 |
| COc1ccc(Cn2ncc(NC(=O)Cc3ccc4c(cnn4C)c3)n2)cc1 [Example 63, N-[2-(4-Methoxy-benzyl)-2H-[1,2,3]triazol-4-yl]-2-(1-methyl-1H-indazol-5-yl)-acetamide] | 160 |
| CC1(c2ccc(CC(=O)Nc3cnn(Cc4ccc(F)cc4)n3)cc2)COC1 [Example 53, N-[2-(4-Fluoro-benzyl)-2H-[1,2,3]triazol-4-yl]-2-[4-(3-methyl-oxetan-3-yl)-phenyl]-acetamide] | 35 |
| Cc1ccc(Cn2ncc(NC(=O)Cc3ccc4c(cnn4C)c3)n2)cc1C#N [Example 204, N-[2-(3-Cyano-4-methyl-benzyl)-2H-[1,2,3]triazol-4-yl]-2-(1-methyl-1H-indazol-5-yl)-acetamide] | 280 |
| Cc1ccc(Cn2ncc(NC(=O)Cc3ccc(N4CCCC4)nc3)n2)cc1C#N [Example 213, N-[2-(3-Cyano-4-methyl-benzyl)-2H-[1,2,3]triazol-4-yl]-2-(6-pyrrolidin-1-yl-pyridin-3-yl)-acetamide] | 120 |
| CC1(COc2ccc(CC(=O)Nc3cnn(Cc4ccc(C#N)cc4)n3)cc2)CC(F)(F)C1 [Example 197, N-[2-(4-Cyano-benzyl)-2H-[1,2,3]triazol-4-yl]-2-[4-(3,3-difluoro-1-methyl-cyclobutylmethoxy)-phenyl]-acetamide] | 52 |
| CC(C)(C)c1ccc(CC(=O)Nc2cnn(Cc3ccc(OC(F)F)c(F)c3)n2)cc1 [Example 178, 2-(4-tert-Butyl-phenyl)-N-[2-(4-difluoromethoxy-3-fluoro-benzyl)-2H-[1,2,3]triazol-4-yl]-acetamide] | 49 |
| CC(C)(C)c1ccc(CC(=O)Nc2cnn(Cc3ccc(C#N)cn3)n2)cc1 [Example 244, 2-(4-tert-Butyl-phenyl)-N-[2-(5-cyano-pyridin-2-ylmethyl)-2H-[1,2,3]triazol-4-yl]-acetamide] | 34 |
| COc1ccc(Cn2ncc(NC(=O)Cc3ccc(N4CCCC4)nc3)n2)cc1C#N [Example 236, N-[2-(3-Cyano-4-methoxy-benzyl)-2H-[1,2,3]triazol-4-yl]-2-(6-pyrrolidin-1-yl-pyridin-3-yl)-acetamide] | 160 |
| CC(C)c1ccc(CC(=O)Nc2cnn(Cc3ccc(C#N)c(F)c3)n2)cc1 [Example 74, N-[2-(4-Cyano-3-fluoro-benzyl)-2H-[1,2,3]triazol-4-yl]-2-(4-isopropyl-phenyl)-acetamide] | 45 |

| Structure (SMILES) | IC50 [nM] |
| --- | --- |
| CCOc1ccc(Cn2ncc(NC(=O)Cc3ccc(C4(C)COC4)cc3)n2)cc1 [Example 42, N-[2-(4-Ethoxy-benzyl)-2H-[1,2,3]triazol-4-yl]-2-[4-(3-methyl-oxetan-3-yl)-phenyl]-acetamide] | 31 |
| N#Cc1ccc(Cn2ncc(NC(=O)Cc3ccc(N4CCC(F)(F)C4)nc3)n2)cc1 [Example 97, N-[2-(4-Cyano-benzyl)-2H-[1,2,3]triazol-4-yl]-2-[6-(3,3-difluoro-pyrrolidin-1-yl)-pyridin-3-yl]-acetamide] | 36 |
| COc1c(F)cc(Cn2ncc(NC(=O)Cc3ccc(N4CCCC4)nc3)n2)cc1F [Example 81, N-[2-(3,5-Difluoro-4-methoxy-benzyl)-2H-[1,2,3]triazol-4-yl]-2-(6-pyrrolidin-1-yl-pyridin-3-yl)-acetamide] | 28 |
| CCN(CC)c1ccc(CC(=O)Nc2cnn(Cc3ccc(OC)cc3)n2)cn1 [Example 58, 2-(6-Diethylamino-pyridin-3-yl)-N-[2-(4-methoxy-benzyl)-2H-[1,2,3]triazol-4-yl]-acetamide] | 160 |
| N#Cc1ccc(Cn2ncc(NC(=O)Cc3ccc(N4CCCC4)nc3)n2)cc1 [Example 98, N-[2-(4-Cyano-benzyl)-2H-[1,2,3]triazol-4-yl]-2-(6-pyrrolidin-1-yl-pyridin-3-yl)-acetamide] | 83 |
| N#Cc1ccc(Cn2ncc(NC(=O)Cc3ccc(OCC4(F)COC4)cc3)n2)cc1 [Example 194, N-[2-(4-Cyano-benzyl)-2H-[1,2,3]triazol-4-yl]-2-[4-(3-fluoro-oxetan-3-ylmethoxy)-phenyl]-acetamide] | 340 |
| COc1c(F)cc(Cn2ncc(NC(=O)Cc3ccc(C(C)(C)C)cc3)n2)cc1F [Example 79, 2-(4-tert-Butyl-phenyl)-N-[2-(3,5-difluoro-4-methoxy-benzyl)-2H-[1,2,3]triazol-4-yl]-acetamide] | 46 |
| Cc1cc(Cn2ncc(NC(=O)Cc3ccc(N4CCC(F)(F)C4)nc3)n2)ccc1C#N [Example 167, N-[2-(4-Cyano-3-methyl-benzyl)-2H-[1,2,3]triazol-4-yl]-2-[6-(3,3-difluoro-pyrrolidin-1-yl)-pyridin-3-yl]-acetamide] | 22 |
| COc1c(F)cc(Cn2ncc(NC(=O)Cc3ccc4c(ccn4C)c3)n2)cc1F [Example 77, N-[2-(3,5-Difluoro-4-methoxy-benzyl)-2H-[1,2,3]triazol-4-yl]-2-(1-methyl-1H-indol-5-yl)-acetamide] | 13 |
| O=C(Cc1ccc(N2CCCC2)nc1)Nc1cnn(Cc2ccc(OC(F)(F)F)c(F)c2)n1 [Example 192, N-[2-(3-Fluoro-4-trifluoromethoxy-benzyl)-2H-[1,2,3]triazol-4-yl]-2-(6-pyrrolidin-1-yl-pyridin-3-yl)-acetamide] | 23 |
| O=C(Cc1ccc(N2CCCC2)nc1)Nc1cnn(Cc2ccc(OC(F)F)c(F)c2)n1 [Example 183, N-[2-(4-Difluoromethoxy-3-fluoro-benzyl)-2H-[1,2,3]triazol-4-yl]-2-(6-pyrrolidin-1-yl-pyridin-3-yl)-acetamide] | 26 |
| Cc1cn(C)c2ccc(CC(=O)Nc3cnn(Cc4ccc(C#N)c(F)c4)n3)cc12 [Example 140, N-[2-(4-Cyano-3-fluoro-benzyl)-2H-[1,2,3]triazol-4-yl]-2-(1,3-dimethyl-1H-indol-5-yl)-acetamide] | 14 |
| O=C(Cc1ccc(N2CCCC2)nc1)Nc1cnn(Cc2ccc(F)cc2)n1 [Example 55, N-[2-(4-Fluoro-benzyl)-2H-[1,2,3]triazol-4-yl]-2-(6-pyrrolidin-1-yl-pyridin-3-yl)-acetamide] | 50 |
| CN(CC1CC1)c1ccc(CC(=O)Nc2cnn(Cc3ccc(F)c(F)c3)n2)cn1 [Example 12, 2-[6-(Cyclopropylmethyl-methyl-amino)-pyridin-3-yl]-N-[2-(3,4-difluoro-benzyl)-2H-[1,2,3]triazol-4-yl]-acetamide] | 31 |
| N#Cc1ccc(Cn2ncc(NC(=O)Cc3ccc(OC4CC(F)(F)C4)cc3)n2)cc1 [Example 196, N-[2-(4-Cyano-benzyl)-2H-[1,2,3]triazol-4-yl]-2-[4-(3,3-difluoro-cyclobutoxy)-phenyl]-acetamide] | 41 |
| CC(C)(C)c1ccc(CC(=O)Nc2cnn(Cc3ccc(C#N)c(F)c3)n2)cc1 [Example 73, 2-(4-tert-Butyl-phenyl)-N-[2-(4-cyano-3-fluoro-benzyl)-2H-[1,2,3]triazol-4-yl]-acetamide] | 37 |
| Cn1ncc2cc(CC(=O)Nc3cnn(Cc4ccc(C#N)cc4)n3)ccc21 [Example 234, N-[2-(4-Cyano-benzyl)-2H-[1,2,3]triazol-4-yl]-2-(1-methyl-1H-indazol-5-yl)-acetamide] | 76 |
| Cc1ccc(Cn2ncc(NC(=O)Cc3ccc(N4CCCC4)nc3)n2)cc1 [Example 68, N-[2-(4-Methyl-benzyl)-2H-[1,2,3]triazol-4-yl]-2-(6-pyrrolidin-1-yl-pyridin-3-yl)-acetamide] | 45 |
